Results: patent US11976064B2, “Toll-like receptor agonists” (Pfizer Inc., priority 2019, dated 2024)

Target: T1, human toll like receptor 7 (hTLR7) (Homo sapiens, UniProt Q9NYK1)
T1 construct: host or cells: HEK293 (HEK-Blue hTLR7)
T1 sequence (Q9NYK1 27-1049): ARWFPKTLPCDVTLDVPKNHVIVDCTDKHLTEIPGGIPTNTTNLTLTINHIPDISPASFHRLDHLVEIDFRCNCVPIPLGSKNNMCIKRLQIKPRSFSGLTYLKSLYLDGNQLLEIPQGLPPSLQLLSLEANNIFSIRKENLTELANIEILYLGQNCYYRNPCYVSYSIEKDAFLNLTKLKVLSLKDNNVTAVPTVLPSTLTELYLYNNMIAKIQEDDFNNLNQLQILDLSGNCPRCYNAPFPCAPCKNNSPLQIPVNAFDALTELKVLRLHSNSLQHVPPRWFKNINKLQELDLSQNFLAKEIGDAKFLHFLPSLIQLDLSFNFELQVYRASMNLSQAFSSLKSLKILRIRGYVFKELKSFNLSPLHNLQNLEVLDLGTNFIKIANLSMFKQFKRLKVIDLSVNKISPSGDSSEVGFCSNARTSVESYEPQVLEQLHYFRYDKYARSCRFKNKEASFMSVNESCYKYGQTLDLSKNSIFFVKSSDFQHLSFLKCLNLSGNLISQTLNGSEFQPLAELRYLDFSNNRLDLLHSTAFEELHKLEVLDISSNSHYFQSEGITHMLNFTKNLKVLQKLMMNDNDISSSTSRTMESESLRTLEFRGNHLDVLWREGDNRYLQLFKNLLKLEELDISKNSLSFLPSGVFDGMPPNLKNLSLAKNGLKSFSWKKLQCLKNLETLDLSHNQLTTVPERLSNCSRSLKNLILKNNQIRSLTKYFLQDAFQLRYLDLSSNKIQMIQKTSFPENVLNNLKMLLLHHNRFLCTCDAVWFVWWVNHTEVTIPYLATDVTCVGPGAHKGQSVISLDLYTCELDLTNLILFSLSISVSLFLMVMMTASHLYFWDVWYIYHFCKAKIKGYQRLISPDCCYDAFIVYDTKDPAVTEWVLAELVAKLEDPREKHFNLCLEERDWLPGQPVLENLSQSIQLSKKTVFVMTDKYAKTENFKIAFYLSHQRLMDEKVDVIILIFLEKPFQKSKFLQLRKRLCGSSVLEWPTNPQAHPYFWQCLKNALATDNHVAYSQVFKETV
Experiment: hTLR7 cell functional assay (HEK-Blue hTLR7 SEAP reporter)
Format: cell-based
Settings: HEK293 cells stably overexpressing hTLR7, SEAP reporter; geometric mean when tested more than once
Description: The Examples described were tested for biological activity in functional cellular assays using HEK293 cells stably overexpressing human TLR7 or TLR8. The assays tested for the ability of each Example to stimulate secretion of interferon alpha (IFNα) in human primary blood mono nuclear cells (PBMC).
To determine the ability of each Example to activate the human toll like receptor 7 (hTLR7) or human toll like receptor 8 (hTLR8), cell-based reporter systems were utilized. HEK293 cells stably overexpressing either hTLR7 or hTLR8 along with a reporter gene containing an optimized secreted embryonic alkaline phosphatase gene (SEAP), under the control of the IFN-b minimal promoter fused to five NF-κB and AP-1-binding sites, were obtained from Invivogen (HEK-Blue™ hTLR7, cat #Hkb-ht1r7; HEK-Blue™ hTLR8, cat #Hkb-ht1r8). Stimulation of hTLR7 or hTLR8 in these cells activates NF-κB and AP-1 and induces the production of SEAP which can be quantified using an alkaline phosphatase detection reagent.
Cells were maintained in Dulbecco's Modified Eagle Media (DMEM) (containing Fetal Bovine Serum (FBS) heat inactivated (10%), Glutamax (2 mM), Penicillin/Streptomycin, Blasticidin (10 μg/ml), Zeocin (100 μg/ml) and Normocin (100 μg/ml)). On day one of the assay, Examples were prepared using 11-point half-log serial dilutions from a 10mM DMSO stock solution and 50 nl was spotted into 384-well Viewplates (PerkinElmer, cat #6007480). Positive control TLR7/8 agonist and negative control (DMSO, no Example) were also spotted within the assay plate and were used to determine percent effect during the analysis process. After resuspension in DMEM assay media containing FBS heat inactivated (10%), Glutamax (2 mM) and Penicillin/Streptomycin, 10,000 cells/20 μl/well were added to previously prepared plates. Plates were incubated overnight (16-20 hrs) at 37° C. in a 5% CO2 environment. Prewetted Microclime lids (Labcyte, LLS-0310) were used to prevent evaporation. On day two of the assay, QUANTI-Blue™ detection reagent was prepared by reconstituting QUANTI-Blue™ powder (InvivoGen, Rep-qb1) with 100 ml of sterile water and allowed to equilibrate to 37° C. for 15 minutes. 20 μl of QUANTI-Blue™ detection reagent was added to each well and plates were incubated at room temperature for 180 min. At the end of the incubation, plates were read on an Envision (Perkin Elmer) plate reader capturing absorbance at 650 nm.
Using Positive (TLR7/8 agonist) and Negative (DMSO) controls, the percent (%) effect was calculated for each Example using the following equation: effect=100−[100*{(Example−Positive Control)/(Negative Control−Positive Control)}]
The % effect at each concentration of each Example was calculated utilizing the ABase software suite (IBDS) and was relative to the amount of SEAP produced in the positive and negative control wells contained within each assay plate. The concentrations and % effect values for each Example were fit using a 4-parameter logistic model in ABase and the concentration of each Example that produced 50% response (EC50) was calculated.

SMILES	EC50
CCOCc1nc2c(N)nc(C)c(C)c2n1CC(C)(CO)COC (single isomer, unassigned) [Example 6, 3-(4-amino-2-(ethoxymethyl)-6,7-dimethyl-1H-imidazo[4,5-c]pyridin-1-yl)-2-(methoxymethyl)-2-methylpropan-1-ol]	49 nM
CCOCc1nc2c(N)nc(C)c(C)c2n1CC(C)(CO)COC (single isomer, unassigned) [Example 7, 3-(4-amino-2-(ethoxymethyl)-6,7-dimethyl-1H-imidazo[4,5-c]pyridin-1-yl)-2-(methoxymethyl)-2-methylpropan-1-ol]	103 nM
CCOCc1nc2c(N)nc(C)c(C)c2n1CC(CO)CO [Example 1, 2-((4-amino-2-(ethoxymethyl)-6,7-dimethyl-1H-imidazo[4,5-c]pyridin-1-yl)methyl)propane-1,3-diol]	644 nM
CCOCc1nc2c(N)nc(C)c(C)c2n1CC(C)(CO)CO [Example 2, 2-((4-amino-2-(ethoxymethyl)-6,7-dimethyl-1H-imidazo[4,5-c]pyridin-1-yl)methyl)-2-methylpropane-1,3-diol]	54 nM
Cc1nc(N)c2nc(CC(F)(F)F)n(CC(C)(CO)CO)c2c1C [Example 8, 2-((4-amino-6,7-dimethyl-2-(2,2,2-trifluoroethyl)-1H-imidazo[4,5-c]pyridin-1-yl)methyl)-2-methylpropane-1,3-diol]	78 nM
CCc1nc2c(N)nc3ccccc3c2n1CC(C)(CO)CO [Example 15, 2-((4-amino-2-ethyl-1H-imidazo[4,5-c]quinolin-1-yl)methyl)-2-methylpropane-1,3-diol]	75 nM

Compounds with a lower EC50, results first:

EC50	SMILES
29 nM	CCOCc1nc2c(N)nc3ccccc3c2n1CC(C)(CO)CO [Example 3, 2-((4-amino-2-(ethoxymethyl)-1H-imidazo[4,5-c]quinolin-1-yl)methyl)-2-methylpropane-1,3-diol]
27 nM	CCOCc1nc2c(N)nc(C)c(C)c2n1CC(CC)(CO)CO [Example 9, 2-((4-amino-2-(ethoxymethyl)-6,7-dimethyl-1H-imidazo[4,5-c]pyridin-1-yl)methyl)-2-ethylpropane-1,3-diol]
4 nM	CCCCc1nc2c(N)nc3ccccc3c2n1CC(C)(CO)CO [Example 10, 2-((4-amino-2-butyl-1H-imidazo[4,5-c]quinolin-1-yl)methyl)-2-methylpropane-1,3-diol]
9 nM	CCCCc1nc2c(N)nc3c(c2n1CC(C)(CO)CO)CCCC3 [Example 13, 2-((4-amino-2-butyl-6,7,8,9-tetrahydro-1H-imidazo[4,5-c]quinolin-1-yl)methyl)-2-methylpropane-1,3-diol]
14 nM	CCCCc1nc2c(N)nc3c(c2n1CC(C)(CO)CO)CCC3 [Example 14, 2-((4-amino-2-butyl-7,8-dihydrocyclopenta[b]imidazo[4,5-d]pyridin-1(6H)-yl)methyl)-2-methylpropane-1,3-diol]
19 nM	CCCc1nc2c(N)nc3ccccc3c2n1CC(C)(CO)CO [Example 16, 2-((4-amino-2-propyl-1H-imidazo[4,5-c]quinolin-1-yl)methyl)-2-methylpropane-1,3-diol]
